Source: patent US9670226B2, “Sesquiterpenoids” (National Institute of Biological Sciences, Beijing, priority 2014, dated 2017)

Columns and labels:
cancer cells = assay: Cell death in cancer cells (cell line not given); format: cell-based; details: addition of DTT
phosphorylation of IκBα [1] = assay: LPS induced NF-κB activation: IκBα phosphorylation in RAW264.7 cells (western blot); format: cell-based, mouse
[2] = tested on: panel of structurally related kinases
[3] = tested on: peptides 1A, 2A, 1S and 2S (cysteine 46 replaced by alanine or serine); assay: Peptide binding by MALDI-TOF; parameters: species or system human
[4] = tested on: NIK-mediated production of p52 (IKKα activity); assay: NIK-mediated non-canonical NF-κB activation (processing of p100 to p52); format: cell-based; details: ectopic expression of NIK
Description: Since phosphorylation of p100 by IKKα is critical for NIK-mediated activation of the non-canonical NF-κB, we further investigated the effect of 223 on non-canonical NF-κB activation.

[5] = tested on: Phosphorylation of IKKα/β; assay: TRAF6-induced IKKα/β phosphorylation in S100 cell lysates from 293T cells; format: biochemical; details: S100 cell lysates from 293T cells with recombinant TRAF6
Description: TNF receptor-associated factors (TRAFs) are important intermediates in NF-κB signaling pathway. For example, TRAF2 and TRAF5 regulate TNF-α receptor triggered IKK activation, whereas TRAF6 is required for IL-1 induced IKK activation^2. The latter pathway can be reconstituted in cell-free extracts by adding recombinant TRAF6 protein. Phosphorylation of IKKα/β was detected in S100 cell lysates from 293T cells when incubated with recombinant TRAF6.

[6] = tested on: gastric adenocarcinoma BCG-823 cells; assay: Cancer cell survival; format: cell-based, human
phosphorylation of IκBα [7] = assay: TNF induced IκBα phosphorylation in different cell lines; format: cell-based
IKKβ = biological target: T1, IKKβ (Homo sapiens, UniProt O14920); assay: IKKβ kinase inhibition; format: biochemical; details: read-out: IC50 against IKKβ
T1 sequence (O14920 1-756): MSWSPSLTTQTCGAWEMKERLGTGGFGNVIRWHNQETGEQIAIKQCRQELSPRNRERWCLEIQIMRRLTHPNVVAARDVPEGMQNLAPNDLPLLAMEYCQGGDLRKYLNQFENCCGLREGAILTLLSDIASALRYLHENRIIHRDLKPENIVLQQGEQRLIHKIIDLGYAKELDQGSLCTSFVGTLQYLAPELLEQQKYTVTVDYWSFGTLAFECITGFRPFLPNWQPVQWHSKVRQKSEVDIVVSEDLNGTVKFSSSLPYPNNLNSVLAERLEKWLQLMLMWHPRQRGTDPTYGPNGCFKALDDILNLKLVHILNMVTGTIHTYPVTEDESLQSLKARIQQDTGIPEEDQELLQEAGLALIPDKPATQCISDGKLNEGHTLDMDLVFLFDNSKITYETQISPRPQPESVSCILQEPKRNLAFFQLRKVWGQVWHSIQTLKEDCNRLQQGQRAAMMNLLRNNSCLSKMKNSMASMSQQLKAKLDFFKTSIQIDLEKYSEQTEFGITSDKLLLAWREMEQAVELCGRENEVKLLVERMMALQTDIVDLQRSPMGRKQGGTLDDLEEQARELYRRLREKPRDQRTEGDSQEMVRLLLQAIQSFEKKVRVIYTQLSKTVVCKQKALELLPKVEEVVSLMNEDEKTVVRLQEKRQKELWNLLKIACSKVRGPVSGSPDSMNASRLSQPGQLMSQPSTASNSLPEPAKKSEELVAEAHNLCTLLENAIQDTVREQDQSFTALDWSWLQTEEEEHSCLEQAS
Description: To further explore how (+)-ainsliadimer A inactivates IKKα/β, we conducted the molecular dynamics (MD) simulations using the first crystal structure of IKKβ^29 to sample the conformational states of IKKβ upon 223 binding. […] We next asked whether 223 could directly affect IKKβ kinase activity.

[8] = tested on: IKKβ C215 containing peptides #3 and #4; assay: Peptide binding by MALDI-TOF; parameters: species or system human
TAB1 = TAB1 (Homo sapiens, UniProt Q15750); assay: Association with other NF-κB pathway proteins; format: binding
Sequence of TAB1 (Q15750 whole entry, species assumed): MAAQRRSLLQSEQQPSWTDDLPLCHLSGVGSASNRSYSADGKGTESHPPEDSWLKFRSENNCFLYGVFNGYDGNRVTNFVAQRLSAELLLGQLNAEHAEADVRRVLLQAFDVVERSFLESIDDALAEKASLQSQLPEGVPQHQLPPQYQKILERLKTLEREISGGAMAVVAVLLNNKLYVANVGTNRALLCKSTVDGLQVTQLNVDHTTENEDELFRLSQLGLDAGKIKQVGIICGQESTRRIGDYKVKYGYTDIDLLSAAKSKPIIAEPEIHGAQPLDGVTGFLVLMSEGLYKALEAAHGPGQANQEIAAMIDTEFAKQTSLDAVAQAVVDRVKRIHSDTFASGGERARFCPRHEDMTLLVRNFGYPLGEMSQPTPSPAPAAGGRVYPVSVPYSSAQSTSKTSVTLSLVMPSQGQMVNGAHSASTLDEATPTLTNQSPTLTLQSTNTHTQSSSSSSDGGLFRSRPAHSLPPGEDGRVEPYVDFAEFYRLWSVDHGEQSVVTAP

[9] = tested on: LPS-triggered inflammatory response (serum TNF-α, IL-6, IL-1β); assay: LPS induced inflammatory cytokines in vivo; details: mice pre-injected with compound, then LPS
Description: (+)-Ainsliadimer A (223) is a structurally unique and complex sesquiterpene lactone dimer with an unprecedented carbon skeleton, which was originally isolated from Ainsliaea macrocephala used in traditional Chinese medicine for the treatment of various diseases, including angina and rheumatoid arthritis^22. Aiming for the systematical chemical genetic studies using bioactive natural products, we have successfully accomplished the first enantioselective total syntheses of 223 as well as other related dimeric and trimeric sesquiterpenoids^23-25, which provided us ample material to extensively investigate their biological activities and potential therapy application. […] As an endotoxin, LPS is known to cause a systemic inflammatory response and acute tissue injury when injected into mice. Thus, we attempt to examine the effect of 223 on LPS-triggered inflammatory response in vivo. Mice were pre-injected with or without vehicle or 223, and then followed by administration of PBS or LPS.

[10] = tested on: IKKβ C46 containing peptide (#1, #2; amino acids 41-53); assay: Peptide binding by MALDI-TOF; parameters: species or system human
Description: (§1) This peptide was tested for binding to 223 and probe by using MALDI-TOF (Matrix-Assisted […] Desorption/Ionization Time of Flight). m/z values at 2,047.978 and 2,479.259 were well matched with the calculated weights of #1+223 and #1+Probe, respectively. […] As expected, the peptide #2 containing amino acids 41-53 of human IKKβ interacted with both 223 and probe.

[11] = biological target: T2, IKKβ C46 containing peptide (#1, #2; amino acids 41-53) (Homo sapiens, UniProt O14920); assay: Peptide binding by MALDI-TOF
T2 construct: encompasses amino acids 41-53 of human IKKβ; made in house; host or cells: chemical peptide synthesis
Description: as §1

[12] = tested on: IKKβ, other eight cysteine-to-alanine mutants; assay: Binding to IKKβ cysteine mutants
Description: In order to evaluate which of them is critical for the binding of 223, we individually mutated these nine cysteine residues of IKKβ into alanines.

TAK1 = TAK1 (Homo sapiens, UniProt O43318); assay: Association with other NF-κB pathway proteins; format: binding
Sequence of TAK1 (O43318 whole entry): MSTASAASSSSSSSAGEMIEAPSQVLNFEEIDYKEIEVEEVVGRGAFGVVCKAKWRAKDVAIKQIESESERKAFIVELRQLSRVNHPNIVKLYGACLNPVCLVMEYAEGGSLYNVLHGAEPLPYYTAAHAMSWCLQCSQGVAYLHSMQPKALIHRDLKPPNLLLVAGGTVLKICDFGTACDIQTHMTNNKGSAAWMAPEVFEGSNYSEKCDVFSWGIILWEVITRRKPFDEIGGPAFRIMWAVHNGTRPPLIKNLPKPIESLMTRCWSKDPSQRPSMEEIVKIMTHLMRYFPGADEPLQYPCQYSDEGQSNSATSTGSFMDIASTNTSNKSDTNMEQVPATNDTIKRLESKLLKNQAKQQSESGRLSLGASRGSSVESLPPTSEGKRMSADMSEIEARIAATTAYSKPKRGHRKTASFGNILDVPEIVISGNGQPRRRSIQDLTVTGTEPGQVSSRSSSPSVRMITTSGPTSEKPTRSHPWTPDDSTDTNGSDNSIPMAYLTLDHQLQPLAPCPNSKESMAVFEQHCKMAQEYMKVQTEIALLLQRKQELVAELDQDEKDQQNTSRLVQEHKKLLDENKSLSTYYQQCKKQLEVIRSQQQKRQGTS

[13] = tested on: production of NO in a mouse macrophage cell line RAW264.7; details: RAW264.7 stimulated by LPS; previously shown (ref 22); cited from earlier work
IKKβ C46A = biological target: T3, IKKβ C46A (Homo sapiens, UniProt O14920, C46A); assay: Binding to IKKβ cysteine mutants
T3 construct: Flag; made in house
T3 sequence (O14920 whole entry C46A): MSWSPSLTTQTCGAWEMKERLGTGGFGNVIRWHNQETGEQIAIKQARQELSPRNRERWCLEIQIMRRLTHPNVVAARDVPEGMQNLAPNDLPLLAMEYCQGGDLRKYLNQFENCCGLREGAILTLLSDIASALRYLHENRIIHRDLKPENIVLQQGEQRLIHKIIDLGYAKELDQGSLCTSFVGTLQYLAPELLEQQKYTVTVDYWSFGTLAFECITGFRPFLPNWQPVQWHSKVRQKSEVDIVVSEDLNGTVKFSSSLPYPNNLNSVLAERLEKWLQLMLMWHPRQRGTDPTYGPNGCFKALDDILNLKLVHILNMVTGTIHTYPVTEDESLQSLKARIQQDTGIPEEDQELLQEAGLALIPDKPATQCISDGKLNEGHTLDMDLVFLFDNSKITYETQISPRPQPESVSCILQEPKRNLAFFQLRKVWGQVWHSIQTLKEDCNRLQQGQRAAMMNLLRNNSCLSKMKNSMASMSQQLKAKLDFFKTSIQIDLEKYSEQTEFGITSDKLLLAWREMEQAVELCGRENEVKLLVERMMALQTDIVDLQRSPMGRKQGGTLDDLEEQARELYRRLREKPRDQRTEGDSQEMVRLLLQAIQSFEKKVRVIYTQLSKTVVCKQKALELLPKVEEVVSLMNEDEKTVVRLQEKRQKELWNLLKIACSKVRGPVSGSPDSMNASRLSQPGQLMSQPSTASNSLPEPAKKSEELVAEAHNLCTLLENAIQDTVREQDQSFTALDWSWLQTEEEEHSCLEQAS

## C=C1C(=O)O[C@@H]2[C@@H]3[C@@H](C[C@@]4(O)[C@]3(O)CC[C@]43C(=O)C[C@H]4C(=C)CC[C@H]5C(=C)C(=O)O[C@@H]5[C@H]43)C(=C)CC[C@@H]12 [Compound 223, (+)-Ainsliadimer A]
Cancer cells
  compound-triggered inhibition of cell survival: completely abolished
Phosphorylation of IκBα [1]; RAW264.7 cells
  inhibitory effect against LPS-induced NF-κB activation in comparison with BMS-345541: much stronger inhibitory effect
Phosphorylation of IκBα [1]; RAW264.7 cells, pre-treatment, LPS for 10 or 20 minutes
  concentration that effectively blocks phosphorylation of IκBα: about 8 μM
Phosphorylation of IκBα [1]; Raw 264.7 cells pre-incubated with 4 μM for 2 h, 20 ng/ml LPS, 20 minutes, western blot
  phosphorylation of IκBα: effectively blocked
[2]
  selectivity against a panel of structurally related kinases: excellent selectivity
[3]
  binding to peptides 1A, 2A, 1S and 2S: lost the ability to bind
[4]
  NIK-mediated production of p52: prevented
[5]
  TRAF6-induced phosphorylation of IKKα/β: completely abolished
[6]; BCG-823, 48 hours
  inhibition of cell survival (cell viability by ATP levels): dose response inhibition
[6]; BCG-823, different concentration
  cell death: Dramatic cell death
Phosphorylation of IκBα [7]
  TNF induced phosphorylation of IκBα: significantly inhibited
IKKβ
  IC50: 0.076 µM
[8]
  association with peptides #3 and #4: no association
TAB1
  association with TAB1: no association
[9]
  up-regulation of serum IL-1β: greatly attenuated
  up-regulation of serum IL-6: greatly attenuated
  up-regulation of serum TNF-α: greatly attenuated
[10]
  interaction with peptide #2: interacted
[11]
  binding to peptide #1: could bind
[12]
  binding of other eight IKKβ cysteine mutants: retained high affinity binding
TAK1
  association with TAK1: no association
[13]
  inhibitory activity against the production of NO: inhibitory activity
IKKβ C46A
  interaction of IKKβ C46A mutant with compound: completely lost the ability to interaction
